Test results from US20100093645A1, “SMAC Peptidomimetics and the Uses Thereof” (priority 2004, published 2010).
Square brackets hold non-standard residues; d marks the D form. Peptide text beside a SMILES is read from it. Abu = CC[C@H](N)C(=O)O

Tests used:
[1] = molecular target: T1, human XIAP-BIR3 protein (residues 241-356) (Homo sapiens, UniProt P98170); test: biochemical
[2] = molecular target: T1, human XIAP-BIR3 protein (residues 241-356); test: Competitive fluorescence polarization (FP-based) binding assay with SM5F probe; settings: SM5 vs S9
Target sequence in this assay (P98170 241-356): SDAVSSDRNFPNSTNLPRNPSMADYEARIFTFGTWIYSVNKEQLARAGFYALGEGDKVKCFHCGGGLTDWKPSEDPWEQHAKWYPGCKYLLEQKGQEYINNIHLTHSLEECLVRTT

XIAP = XIAP (Homo sapiens, UniProt P98170); settings: background statement; cited from earlier work
Chain of XIAP (P98170 whole entry): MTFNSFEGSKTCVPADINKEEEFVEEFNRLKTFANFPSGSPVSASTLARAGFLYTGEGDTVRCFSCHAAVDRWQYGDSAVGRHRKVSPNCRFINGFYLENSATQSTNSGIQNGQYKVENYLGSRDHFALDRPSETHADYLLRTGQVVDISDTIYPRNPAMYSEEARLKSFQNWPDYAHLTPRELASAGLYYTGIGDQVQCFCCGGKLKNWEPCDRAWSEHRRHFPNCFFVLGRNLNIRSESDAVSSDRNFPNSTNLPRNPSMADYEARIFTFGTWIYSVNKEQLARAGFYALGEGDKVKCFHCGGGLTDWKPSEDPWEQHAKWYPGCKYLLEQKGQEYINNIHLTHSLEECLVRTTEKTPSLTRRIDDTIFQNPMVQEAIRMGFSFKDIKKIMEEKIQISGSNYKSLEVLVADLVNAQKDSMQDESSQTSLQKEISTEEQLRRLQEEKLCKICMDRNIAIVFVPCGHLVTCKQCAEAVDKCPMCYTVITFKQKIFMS

| IC50 [1] [nM] | Ki [1] [nM] | ratio of the IC50 values for unlabeled SM5 and S9 [2] [fold] | Molecule | Kd (XIAP) [nM] |
| --- | --- | --- | --- | --- |
| 220 ± 10 | 75 ± 5 | 6.7 | CC[C@H](N)C(=O)N[C@@H](CCCNC(=N)N)C(=O)N1CCC[C@H]1C(=O)N[C@@H](Cc1ccccc1)C(=O)N[C@@H](CCCCN)C(=O)O [SM5, AbuRPFK, reference compound] (H-[Abu]RPFK-OH; N-terminus and C-terminus assumed) |  |
|  |  |  | mature Smac protein: second mitochondria-derived activator of caspases, mature polypeptide (protein, UniProt Q9NR28 22-239, looked up) Diablo IAP-binding …: LCVPVVANFKKRCFSELIRPWHKTVTIGFGVTLCAVPIAQKSEPHSLSSEALMRRAVSLVTDSTSTFLSQTTYALIEAITEYTKAVYTLTSLYRQYTSLLGKMNSEEEDEVWQVIIGARAEMTSKHQEYLKLETTWMTAVGLSEMAAEAAYQTGADQASITARNHIQLVKLQVEEVHQLSRKAETKLAEAQIEELRQKTQEEGEERAESEQEAYLRED | 420 |
